According to patent US11530179B2, “Amorphous solid succinylated 3-(fatty acid amido)-2-hydroxy-1 -(protected hydroxy)-propane salts and methods of making the same” (Geron Corporation, priority 2019, dated 2022):

Key:
Format in all cases: physicochemical
[1] = Physical form at room temperature (isolation and storage)
[2] = Solubility in organic solvents; settings: most organic solvents, at or below ambient temperature
[3] = Physical stability at room temperature under different relative humidity (RH); settings: for Physical stability, Observation: 20-25° C., 300 mg in uncapped scintillation vial
Procedure: The physical stability of the amorphous 3-(palmitoyl amido)-2-hydroxy-1-(dimethoxytriphenylmethyl hydroxy)-propane lithium salts were tested at room temperature under different relative humidity (RH). 300 mg of amorphous 3-(palmitoyl amido)-2-hydroxy-1-(dimethoxytriphenylmethyl hydroxy)-propane lithium salt was placed in uncapped scintillation vials at 11% RH, 33% RH and 75% RH for days. (Table 1)

Structure (SMILES): CCCCCCCCCCCCCCCC(=O)NCC(COC(c1ccccc1)(c1ccc(OC)cc1)c1ccc(OC)cc1)OC(=O)CCC(=O)[O-].[Li+] (stereo not drawn) [succinylated 3-(palmitoyl amido)-2-hydroxy-1-(dimethoxytriphenylmethyl hydroxy)-propane lithium salt]
- Physical form [1]: stable solids
- Solubility in organic solvents [2]: highly soluble
- Physical stability, Observation ([3]; 11% RH, examined by gently shaking once every day): Remains free-flowing solids up to 14 days*
- Physical stability, Observation ([3]; 33% RH, examined by gently shaking once every day): Remains free-flowing solids up to 14 days*
- Physical stability, Observation ([3]; 75% RH): Turns to sticky after 30 min
- Physical stability ([3]; room temperature, up to 33% relative humidity): remained solid for an extended period of time
